Assays:
[1] = system: unfractionated heparin (UFH); test: aPTT assay, neutralization of heparin in heparinized plasma; type: biochemical; details: plasma containing up to 2 U/mL of UFH; FIG. 1 and FIG. 4
Excerpt: PF4 tetramers form a cylindrical structure displaying an equatorial ring of positively charged amino acids around which the polyanionic heparin molecules wrap and bind with exceptionally high affinity. The formation of a PF4-heparin complex strongly impairs the capacity of heparin to bind AT and stimulate its anticoagulant activity.
(§1) In the aPTT (also referred to as “partial thromboplastin time” or “PTT”) assay, the sample is then mixed with a phospholipid, an activator such as silica, celite, kaolin or ellagic acid, and calcium. The contact activator is used to stimulate production of Factor XIIa. The phospholipids form complexes that activate Factor X and prothrombin. Calcium is used to reverse the anticoagulant effects of the oxalate or citrate. The mixture is then allowed to form a thrombus (clot) and the time to do so is measured. An abnormal or prolonged aPTT time will vary depending on the population and local normal ranges should be known. However, as a general guideline, values over 39 seconds may be considered abnormal and prolonged according to the invention, and such samples may be candidates for further analysis using the methods of the invention.
The PF4-based reagent may be used for the in vitro neutralization of heparin in samples as assessed by the aPTT assay. […]

[2] = system: non-heparinized plasma; test: aPTT assay of non-heparinized plasma; type: biochemical; details: FIG. 2 and FIG. 3
Excerpt: as §1
The PF4-based reagent may be used for the in vitro neutralization of heparin in samples as assessed by the aPTT assay. To ensure an accurate aPTT result the reagent must act specifically to reverse only anticoagulant activity associated with heparin, and otherwise have no effect on the plasma clotting time. […] This phenomenon might be due to PF4-induced stimulation of the thrombin-mediated cleavage of protein C to generate the potent anticoagulant activated protein C (APC). APC acts to inactivate coagulation Factors Va and VIIIa by proteolysis. […]

[3] = relative to heparin; cited from earlier work
[4] = biological target: T1, PF4 (Homo sapiens, UniProt P02776); details: rank: heparin>heparan sulfate>dermatan sulfate>chondroitin-6-sulfate>chondroitin-4-sulfate; cited from earlier work
T1 sequence (P02776 32-101): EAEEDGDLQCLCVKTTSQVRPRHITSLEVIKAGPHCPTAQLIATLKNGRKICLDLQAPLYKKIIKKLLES

Substance | neutralization of heparin anticoagulant activity (aPTT) [1] | effect on the aPTT of non-heparinized plasma [2] | anti-coagulant potency [3] | relative binding affinity for PF4 [4]
platelet factor 4 [PF4] | fully corrected to baseline | gradual prolongation of the aPTT | – | –
chondroitin-4-sulfate | – | – | much lower than that of heparin | low relative affinity for PF4

Reference: US20140038205A1, “METHODS AND COMPOSITIONS RELATING TO COAGULATION ASSAYS” (Precision BioLogic Inc., priority 2011, published 2014)
